Here are results for 86 compounds from the Kinase Knowledgebase extract (Sharma et al. 2016).

Some results are limits rather than exact numbers.

The assay addresses CDK2 (human) (UniProt P24941). Kind of assay: Enzyme Assay.
`O=c1[nH][nH]c2ccc(-c3nc4c(c(Nc5n[nH]c6c(F)cccc56)n3)CCCCCC4)c(C(F)(F)F)c12` came in with a Ki of less than 1000 nM.
For the compound `O=c1[nH][nH]c2ccc(-c3nc(Nc4n[nH]c5c(F)cc(F)cc45)c4ccncc4n3)c(Cl)c12`, the inhibition constant Ki was less than 1000 nM.
The same measure for `O=c1[nH][nH]c2cc(C3CC3)c(-c3nc(Nc4n[nH]c5c(F)cc(F)cc45)c4ccccc4n3)cc12`: less than 1000 nM.
In the case of `Cc1cc(Nc2nc(Sc3ccc4c(=O)[nH][nH]c4c3)nc3c(OCCCN(C)C)cccc23)n[nH]1` it was less than 1000 nM; in that of `O=c1[nH][nH]c2cc(C(F)(F)F)c(-c3nc(Nc4n[nH]c5c(F)cc(F)cc45)c4nccnc4n3)cc12`, less than 1000 nM; in that of `Cc1cnc(Oc2ccc3c(=O)[nH][nH]c3c2)nc1Nc1cc(C2CC2)[nH]n1`, less than 1000 nM.
As to `O=c1[nH][nH]c2cc(CC3COCC(Nc4cc(C5CC5)[nH]n4)C3)ccc12` (stereo unspecified), the Ki is less than 1000 nM.
Compound `O=c1[nH][nH]c2cc(OCC3CCCC(Nc4nccnn4)C3)ccc12` (stereo unspecified) displayed a Ki of less than 1000 nM.
In the case of `O=c1[nH][nH]c2cc(Nc3nc(Nc4cc(-c5ccco5)[nH]n4)c4ccccc4n3)ccc12` it was less than 1000 nM; in that of `O=c1[nH][nH]c2cc(CC(CCNc3ccccn3)Cc3ccccc3)ccc12` (stereo unspecified), less than 1000 nM.
Turning to `CCc1cc(Nc2cc(C)[nH]n2)nc(COc2ccc3[nH][nH]c(=O)c3c2)n1`, the Ki was less than 1000 nM.
In the case of `Cc1cnc(CC2CCCC2CCc2ccc3c(=O)[nH][nH]c3c2)s1` (stereo unspecified) it was less than 1000 nM; in that of `O=C1CCc2c(nc(-c3ccc4[nH][nH]c(=O)c4c3)nc2Nc2n[nH]c3ccccc23)C1`, less than 1000 nM; in that of `Cc1cc(Nc2nc(Sc3ccc4c(=O)[nH][nH]c4c3)nc3cc(N)ccc23)n[nH]1`, less than 1000 nM.
Consider `O=c1[nH][nH]c2ccc(-c3nc(Nc4n[nH]c5ccccc45)cc(-c4ccccn4)n3)c(C(F)(F)F)c12`, for which the Ki is less than 1000 nM.
In the case of `Cc1cnc(NC(CCSc2ccc3c(=O)[nH][nH]c3c2)c2ccccc2)s1` (stereo unspecified) it was less than 1000 nM; in that of `Cn1cnc(NCCC(Cc2ccccc2)Nc2ccc3c(=O)[nH][nH]c3c2)c1` (stereo unspecified), less than 1000 nM.
In the case of `Cc1cc(Nc2nc(Nc3ccc4c(=O)[nH][nH]c4c3)nc3c2CCN(Cc2ccccc2)C3)n[nH]1` it was less than 1000 nM; in that of `Cc1cc(Nc2nc(Nc3ccc4c(=O)[nH][nH]c4c3)nc3c2CCCC3)n[nH]1`, less than 1000 nM; in that of `Cc1cc(Nc2nc(-c3ccc4[nH][nH]c(=O)c4c3)nc3ccsc23)n[nH]1`, less than 1000 nM.
As for `O=C(CCOc1ccc2c(=O)[nH][nH]c2c1)Nc1ccccn1`, the Ki was less than 1000 nM.
On to `C#Cc1c(-c2nc(Nc3n[nH]c4ccc(F)cc34)c3ccccc3n2)ccc2[nH][nH]c(=O)c12`, for which the Ki was less than 1000 nM.
Consider `Cn1cnc(NCCC(=O)Nc2ccc3c(=O)[nH][nH]c3c2)c1`, for which the Ki is less than 1000 nM.
The compound `Cc1cc(Nc2cc(-c3cc4c(=O)[nH][nH]c4cc3C(F)(F)F)nc3cnccc23)n[nH]1` yielded a Ki of less than 1000 nM.
With `O=C(CC(=O)Nc1nccnn1)Cc1ccc2c(=O)[nH][nH]c2c1`, the Ki was less than 1000 nM.
In the case of `Cn1cnc(NCCONc2ccc3c(=O)[nH][nH]c3c2)c1` it was less than 1000 nM.
With `Cc1cnc(NC2CCCC2CNc2ccc3c(=O)[nH][nH]c3c2)s1` (stereo unspecified), the Ki was less than 1000 nM.
The same measure for `O=c1[nH][nH]c2ccc(-c3nc4c(c(Nc5n[nH]c(C6CC6)n5)n3)CCCCC4)c(C(F)(F)F)c12`: less than 1000 nM; for `Cc1cc(Nc2cc(C3CC3)[nH]n2)nc(Oc2ccc3c(=O)[nH][nH]c3c2)n1`: less than 1000 nM.
In turn, `Cc1cc(Nc2cc(COCCN(C)C)nc(Sc3ccc4c(=O)[nH][nH]c4c3)n2)n[nH]1` came in with a Ki of less than 1000 nM.
In the case of `Cc1cnc(NC2CCC(Cc3ccc4c(=O)[nH][nH]c4c3)C2)s1` (stereo unspecified) it was less than 1000 nM.
The same measure for `O=c1[nH][nH]c2cc(C(F)(F)F)c(-c3cc(Nc4n[nH]c5ccccc45)cc(C4CCCCC4)n3)cc12`: less than 1000 nM; for `Cc1cnc(NC2COCC(Sc3ccc4c(=O)[nH][nH]c4c3)C2)s1` (stereo unspecified): less than 1000 nM.
For `Cc1cc(Nc2cc(CN(C)C)nc(Sc3ccc4c(=O)[nH][nH]c4c3)n2)n[nH]1`, the Ki is less than 1000 nM.
The same measure for `O=c1[nH][nH]c2cc(Nc3nc(Nc4cc(C5CC5)[nH]n4)nc(-c4ccccc4)n3)ccc12`: less than 1000 nM.
For `Cc1cc(Nc2ccnc(Cc3ccc4c(=O)[nH][nH]c4c3)c2)n[nH]1`, the Ki is less than 1000 nM.
`Cc1cc(Nc2nc(C(C)(C)c3ccc4c(=O)[nH][nH]c4c3)nc3c2CCCCC3)n[nH]1` had a Ki of less than 1000 nM.
The same measure for `Cc1cc(Nc2nc(Sc3ccc4c(=O)[nH][nH]c4c3)nc3cc([N+](=O)[O-])ccc23)n[nH]1`: less than 1000 nM.
`O=c1[nH][nH]c2cc(Nc3nc(Nc4cc(C5CC5)[nH]n4)c4cc(-c5ccccc5Cl)ccc4n3)ccc12`: the Ki is less than 1000 nM.
In the case of `O=c1[nH][nH]c2cc(SC3COCC(Nc4ccccn4)C3)ccc12` (stereo unspecified) it was less than 1000 nM; in that of `O=c1[nH][nH]c2cc(CCCC(Nc3nccnn3)c3ccccc3)ccc12` (stereo unspecified), less than 1000 nM; in that of `COCC(C)(C)c1cc(Nc2cc(C)[nH]n2)nc(Sc2ccc3c(=O)[nH][nH]c3c2)n1`, less than 1000 nM.
Turning to `Cc1nc(Nc2cc(-c3ccncc3)nc(-c3ccc4[nH][nH]c(=O)c4c3C(F)(F)F)n2)n[nH]1`, the Ki was less than 1000 nM.
The same measure for `Cc1cc(Nc2nc(Cc3ccc4c(=O)[nH][nH]c4c3)nc3c2CCCC3)n[nH]1`: less than 1000 nM.
In the case of `O=C(CCSc1ccc2c(=O)[nH][nH]c2c1)Nc1cc(C2CC2)[nH]n1` it was less than 1000 nM; in that of `O=c1[nH][nH]c2cc(Oc3cc4ccccc4c(Nc4cc(C5CC5)[nH]n4)n3)ccc12`, less than 1000 nM.
As for `Cc1cc(Nc2nc(CSc3ccc4[nH][nH]c(=O)c4c3)nc3c2CCCC3)n[nH]1`, the Ki was less than 1000 nM.
For `O=c1[nH][nH]c2cc(OC(CCNc3nccnn3)Cc3ccccc3)ccc12` (stereo unspecified), the Ki is less than 1000 nM.
In the case of `COc1cccc2c(Nc3cc(C4CC4)[nH]n3)nc(Sc3ccc4c(=O)[nH][nH]c4c3)nc12`, the Ki is less than 1000 nM.
The same measure for `O=c1[nH][nH]c2cc(NC3CCC(Nc4cc(C5CC5)[nH]n4)C3)ccc12` (stereo unspecified): less than 1000 nM.
In the case of `O=c1[nH][nH]c2cc(Nc3ncnc(Nc4cc(C5CC5)[nH]n4)n3)ccc12` it was less than 1000 nM.
The same measure for `Cc1cc(Nc2cc(CSc3ccc4c(=O)[nH][nH]c4c3)nc3ccccc23)n[nH]1`: less than 1000 nM; for `O=c1[nH][nH]c2cc(Sc3cccc(Nc4n[nH]c5ccccc45)n3)ccc12`: less than 1000 nM; for `O=c1[nH][nH]c2cc(C(F)(F)F)c(-c3cc4cccnc4c(Nc4n[nH]c5ccccc45)n3)cc12`: less than 1000 nM.
Consider `O=c1[nH][nH]c2cc(Cc3cc4ccccc4c(Nc4cc(C5CC5)[nH]n4)n3)ccc12`, for which the Ki was less than 1000 nM.
`Cn1cnc(NC(CCSc2ccc3c(=O)[nH][nH]c3c2)c2ccccc2)c1` (stereo unspecified) yielded a Ki of less than 1000 nM.
The same measure for `O=c1[nH][nH]c2cc(Cl)c(-c3cc(N4CCCCC4)nc(Nc4n[nH]c5ccccc45)n3)cc12`: less than 1000 nM.
In the case of `CCc1cccc2c(Nc3cc(C)[nH]n3)nc(-c3ccc4[nH][nH]c(=O)c4c3OC(F)(F)F)nc12` it was less than 1000 nM; in that of `O=c1[nH][nH]c2cc(NCC3CCCC3Nc3ccccn3)ccc12` (stereo unspecified), less than 1000 nM.
`Cc1nc(-c2cc3c(=O)[nH][nH]c3cc2Cl)cc(Nc2n[nH]c3ccc(F)cc23)c1C`: the Ki is less than 1000 nM.
In the case of `O=c1[nH][nH]c2ccc(-c3nc(Nc4cc(C5CC5)[nH]n4)nc(-c4ccccc4)n3)cc12` it was less than 1000 nM; in that of `O=c1[nH][nH]c2ccc(C3COCC(Nc4nccnn4)C3)cc12` (stereo unspecified), less than 1000 nM; in that of `O=c1[nH][nH]c2cc(NCCC(Nc3ccccn3)c3ccccc3)ccc12` (stereo unspecified), less than 1000 nM.
On to `O=c1[nH][nH]c2cc(Sc3cc(Nc4cc(C5CC5)[nH]n4)c4ccccc4n3)ccc12`, for which the Ki is less than 1000 nM.
In the case of `O=C(CCNc1cc(C2CC2)[nH]n1)Nc1ccc2c(=O)[nH][nH]c2c1`, the Ki is less than 1000 nM.
In the case of `CCc1cc(Nc2nc(Nc3ccc4c(=O)[nH][nH]c4c3)nc3ccccc23)n[nH]1` it was less than 1000 nM.
As to `O=c1[nH][nH]c2ccc(C3CCC(Nc4ccccn4)C3)cc12` (stereo unspecified), the Ki is less than 1000 nM.
In the case of `O=c1[nH][nH]c2cc(CCC3CCCC3Nc3nccnn3)ccc12` (stereo unspecified), the Ki is less than 1000 nM.
In the case of `O=c1[nH][nH]c2cc(NCCONc3ccccn3)ccc12` it was less than 1000 nM; in that of `Cc1cc(Nc2cc(Nc3ccc4c(=O)[nH][nH]c4c3)nc3ccccc23)n[nH]1`, less than 1000 nM.
The same measure for `Cc1cc(Nc2nc(CSc3ccc4[nH][nH]c(=O)c4c3)nc3ccccc23)n[nH]1`: less than 1000 nM; for `O=c1[nH][nH]c2cc(SCCCNc3nccnn3)ccc12`: less than 1000 nM; for `O=c1[nH][nH]c2ccc(-c3nc(Nc4cc(C5CC5)[nH]n4)c4ccccc4n3)c(C(F)(F)F)c12`: less than 1000 nM.
The same measure for `Cc1ccc2nc(Nc3ccc4c(=O)[nH][nH]c4c3)nc(Nc3cc(C)[nH]n3)c2n1`: less than 1000 nM; for `Cc1cc(Nc2cc(-c3ccccc3)nc(Nc3ccc4c(=O)[nH][nH]c4c3)n2)n[nH]1`: less than 1000 nM.
The compound `O=c1[nH][nH]c2cc(Oc3cc(Nc4cc(C5CC5)[nH]n4)c4ccccc4n3)ccc12` returned a Ki of less than 1000 nM.
The compound `Cn1cnc(NC2CCCC(C(C)(C)c3ccc4c(=O)[nH][nH]c4c3)C2)c1` (stereo unspecified) yielded a Ki of less than 1000 nM.
As for `Cc1cc(Nc2ccnc(Oc3ccc4c(=O)[nH][nH]c4c3)c2)n[nH]1`, the Ki is less than 1000 nM.
The same measure for `O=c1[nH][nH]c2cc(SCCC(Nc3cc(C4CC4)[nH]n3)c3ccccc3)ccc12` (stereo unspecified): less than 1000 nM.
In the case of `Cn1cnc(NC2CCCC(Oc3ccc4c(=O)[nH][nH]c4c3)C2)c1` (stereo unspecified) it was less than 1000 nM; in that of `O=c1[nH][nH]c2cc(C3(C4CCCC(Nc5ccccn5)C4)CC3)ccc12` (stereo unspecified), less than 1000 nM.
For the compound `CC(=O)NC1CCC(c2nc(-c3cc4c(=O)[nH][nH]c4cc3C(F)(F)F)nc(Nc3n[nH]c4ccccc34)c2C)CC1` (stereo unspecified), the Ki is less than 1000 nM.
The same measure for `Cc1cnc(NC2CCCC(c3ccc4[nH][nH]c(=O)c4c3)C2)s1` (stereo unspecified): less than 1000 nM; for `O=c1[nH][nH]c2ccc(CNc3nc(Nc4cc(C5CC5)[nH]n4)cc(-c4ccccc4)n3)cc12`: less than 1000 nM; for `O=c1[nH][nH]c2cc(C(F)(F)F)c(-c3nc4c(c(Nc5n[nH]c6ccc(F)cc56)n3)OCCCC4)cc12`: less than 1000 nM.
The same measure for `Cn1cnc(NC(=O)CC(=O)Nc2ccc3c(=O)[nH][nH]c3c2)c1`: less than 1000 nM.

One may read the Ki as the equilibrium dissociation constant of an inhibitor or competing ligand from its target.
